24 compounds from ChEMBL document CHEMBL3098039, “Urea/oxalamide tethered β-lactam-7-chloroquinoline conjugates: synthesis and in vitro antimalarial evaluation” (Eur J Med Chem, 2014) can be followed below.

Usually IC50 stands for the concentration at which inhibition is half-maximal.

Test system in one series: not listed separately
Put plainly: Cytotoxicity against human HeLa cells assessed as cell viability at 1 uM after 24 hrs by trypan blue assay relative to untreated control. It counts as cell-based. Particulars: read-out: Activity.
As to `COc1cccc2c1C(=O)c1c(O)c3c(c(O)c1C2=O)C[C@@](O)(C(=O)CO)C[C@@H]3O[C@H]1C[C@H](N)[C@H](O)[C@H](C)O1` [DOXORUBICIN], the viability at 24 h, 1 µM came out at 62%.

Test system in the next series: not listed separately
As to the kind of experiment: Cytotoxicity against human HeLa cells assessed as cell viability at 10 uM after 24 hrs by trypan blue assay relative to untreated control. It counts as cell-based. As to conditions: read-out: Activity.
As to `Cc1ccc(N2C(=O)[C@H](NC(=O)NCCCCCCNc3ccnc4cc(Cl)ccc34)[C@@H]2/C=C/c2ccccc2)cc1` (racemic), the viability at 24 h, 10 µM turned out to be 90%.
Still for that read-out and setting: then `O=C(NCCCCCCNc1ccnc2cc(Cl)ccc12)C(=O)N[C@@H]1C(=O)N(C2CCCCC2)[C@@H]1/C=C/c1ccccc1` (racemic), with 90%.

For a further series, the system named is Plasmodium falciparum. As to the kind of experiment: Antiplasmodial activity against chloroquine-resistant ring stage Plasmodium falciparum W2 assessed as parasitemia after 48 hrs by flow cytometry. It is filed as functional, organism-based. As to conditions: W2, 48 h. (In general: A flow cytometer gives signals particle by particle.)
Regarding `O=C(NCCCNc1ccnc2cc(Cl)ccc12)C(=O)N[C@@H]1C(=O)N(C2CCCCC2)[C@@H]1/C=C/c1ccccc1` (mixture of isomers), the IC50 is 121 nM.
Same read-out and setting: then `Cc1ccc(N2C(=O)[C@@H](NC(=O)C(=O)NCCCNc3ccnc4cc(Cl)ccc34)[C@H]2/C=C/c2ccccc2)cc1` (racemic), with 88.7 nM; and `Cc1ccc(N2C(=O)[C@H](NC(=O)NCCCCNc3ccnc4cc(Cl)ccc34)[C@@H]2/C=C/c2ccccc2)cc1` (mixture of isomers), with 149 nM.
The same measure, in the same setting: in the case of `O=C(NCCCCCCNc1ccnc2cc(Cl)ccc12)C(=O)N[C@@H]1C(=O)N(c2ccc(Cl)cc2)[C@@H]1/C=C/c1ccccc1` (racemic) it was 50.8 nM; in that of `Cc1ccc(N2C(=O)[C@H](NC(=O)NCCCNc3ccnc4cc(Cl)ccc34)[C@@H]2/C=C/c2ccccc2)cc1` (racemic), 51 nM.
The same measure, in the same setting: in the case of `Cc1ccc(N2C(=O)[C@H](NC(=O)NCCNc3ccnc4cc(Cl)ccc34)[C@@H]2/C=C/c2ccccc2)cc1` (mixture of isomers) it was 53.1 nM; in that of `CCOC(=O)C(=O)N[C@@H]1C(=O)N(c2ccc(C)cc2)[C@@H]1/C=C/c1ccccc1` (racemic), more than 1000 nM.
With `Cc1ccc(N2C(=O)[C@H](NC(=O)NCCCCCCNc3ccnc4cc(Cl)ccc34)[C@@H]2/C=C/c2ccccc2)cc1` (racemic), the IC50 was found to be 42.4 nM.
In the case of `CCNCc1cc(Nc2ccnc3cc(Cl)ccc23)ccc1O` [DESETHYL AMODIAQUINE], the IC50 turned out to be 401 nM.
Take `O=C(NCCNc1ccnc2cc(Cl)ccc12)N[C@H]1C(=O)N(C2CCCCC2)[C@H]1/C=C/c1ccccc1` (mixture of isomers): the IC50 is 157 nM.
On the same count and under the same terms, then `CCOC(=O)C(=O)N[C@@H]1C(=O)N(c2ccc(Cl)cc2)[C@@H]1/C=C/c1ccccc1` (relative stereo), with more than 1000 nM; and `O=C(NCCCCNc1ccnc2cc(Cl)ccc12)N[C@H]1C(=O)N(C2CCCCC2)[C@H]1/C=C/c1ccccc1` (relative stereo), with 193 nM; and `C[C@@H]1CC[C@H]2[C@@H](C)C(=O)O[C@@H]3O[C@@]4(C)CC[C@@H]1[C@]32OO4` [ARTEMISININ], with 10.6 nM.
On the same count and under the same terms, in the case of `O=C(NCCCCNc1ccnc2cc(Cl)ccc12)C(=O)N[C@@H]1C(=O)N(C2CCCCC2)[C@@H]1/C=C/c1ccccc1` (mixture of isomers) it was 68.6 nM; in that of `Cc1ccc(N2C(=O)[C@@H](NC(=O)C(=O)NCCNc3ccnc4cc(Cl)ccc34)[C@H]2/C=C/c2ccccc2)cc1` (racemic), 44.8 nM; in that of `O=C(NCCCCCCNc1ccnc2cc(Cl)ccc12)N[C@H]1C(=O)N(C2CCCCC2)[C@H]1/C=C/c1ccccc1` (racemic), 52.1 nM.
On the same count and under the same terms, in the case of `CCOC(=O)N[C@@H]1C(=O)N(c2ccc(C)cc2)[C@@H]1/C=C/c1ccccc1` (racemic) it was more than 1000 nM.
On to `O=C(NCCCNc1ccnc2cc(Cl)ccc12)N[C@H]1C(=O)N(C2CCCCC2)[C@H]1/C=C/c1ccccc1` (relative stereo), for which the IC50 is 73 nM.
On to `CCOC(=O)C(=O)N[C@@H]1C(=O)N(C2CCCCC2)[C@@H]1/C=C/c1ccccc1` (racemic), for which the IC50 was more than 1000 nM.
For `CCOC(=O)N[C@@H]1C(=O)N(C2CCCCC2)[C@@H]1/C=C/c1ccccc1` (racemic), the IC50 is more than 1000 nM.
With `O=C(NCCNc1ccnc2cc(Cl)ccc12)C(=O)N[C@@H]1C(=O)N(C2CCCCC2)[C@@H]1/C=C/c1ccccc1` (racemic), the IC50 is 61.3 nM.
On the same count and under the same terms, in the case of `O=C(NCCCCCCNc1ccnc2cc(Cl)ccc12)C(=O)N[C@@H]1C(=O)N(C2CCCCC2)[C@@H]1/C=C/c1ccccc1` (racemic) it was 35 nM; in that of `O=C(NCCCCNc1ccnc2cc(Cl)ccc12)C(=O)N[C@@H]1C(=O)N(c2ccc(Cl)cc2)[C@@H]1/C=C/c1ccccc1` (racemic), 82.2 nM.
